In patent publication EP4715056A1, “BIO-BASED TRANS-ACONITATE, PREPARATION METHOD THEREFOR AND USE THEREOF” (Qingdao Institute of Bioenergy and Bioprocess Technology, …, priority 2023, dated 2024):

Experiment: Tensile properties (GB/T 1040-2006): tensile modulus at 100%, elongation at break, elastic modulus
Format: physicochemical
Details: PVC plastic with 35 parts plasticizer; 50 mm/min, 25°C
Description: (§1) The aconitates and tributyl citrate prepared in the above examples and comparative examples were added as plasticizers to PVC resin to obtain PVC plastics. The PVC plastics include 100 parts of PVC resin, 35 parts of plasticizer, 2 parts of oxidized polyethylene wax, and 5 parts of octyltin maleate. The above raw materials were mixed and prepared using the same mixing process to obtain finished PVC products. The performance tests were performed on different plasticizers and the obtained PVC finished products in the above examples and comparative examples. […] Three points were selected for each group of samples, each point was tested once, and a median value was taken. • 2. […] Compatibility: tests were performed using a water value method. Since water molecules are polar, the compatibility between the plasticizer and water can characterize the compatibility between the plasticizer and polar materials (PVC, PLA, and nitrile rubber). When a certain plasticizer has good compatibility with water, it has good compatibility with PVC, and vice versa. In the experiment, 2.5 g of plasticizer and 25 g of acetone were added to a beaker, titrated with a burette filled with deionized water, and agitated while titrating until turbidity appears, and the volume of deionized water consumed was recorded. • 4. Glass transition temperature (Tg): the glass transition temperature was tested using a dynamic mechanical analyzer. Test conditions: nitrogen was taken as the carrier gas, at a test temperature range of -40 to 80°C, a heating rate of 3°C/min, and a frequency of 1 Hz.

| Compound | Elastic modulus | Elongation at break | Tensile modulus at 100% |
| --- | --- | --- | --- |
| CCCCOC(=O)C=C(CC(=O)OCCCC)C(=O)OCCCC [Example 29, tributyl aconitate] | 92.6 MPa | 251.6% | 15.4 MPa |
| CCCCOC(=O)C=C(CC(=O)OCCCC)C(=O)OCCCC [Comparative Example 2, tributyl aconitate, reference compound] | 187.3 MPa | 231.4% | 17.4 MPa |
| CCCCOC(=O)C=C(CC(=O)OCCCC)C(=O)OCCCC [Example 25, tributyl aconitate] | 156.4 MPa | 226.5% | 17.2 MPa |
| CCOC(=O)C=C(CC(=O)OCC)C(=O)OCC [Example 21, triethyl aconitate] | 135.5 MPa | 243.6% | 15.8 MPa |
| CCCCC(CC)COC(=O)C=C(CC(=O)OCC(CC)CCCC)C(=O)OCC(CC)CCCC (stereo not shown) [Example 20, tri(2-ethylhexyl) aconitate] | 301.6 MPa | 181.6% | 19.7 MPa |

Experiment: Glass transition temperature (dynamic mechanical analyzer)
Format: physicochemical
Details: PVC plastic with 35 parts plasticizer; -40 to 80°C, 3°C/min, 1 Hz
Description: as §1

| Compound | Tg |
| --- | --- |
| CCCCOC(=O)C=C(CC(=O)OCCCC)C(=O)OCCCC [Example 29, tributyl aconitate] | 28.8 °C |
| CCCCOC(=O)C=C(CC(=O)OCCCC)C(=O)OCCCC [Comparative Example 2, tributyl aconitate, reference compound] | 28.4 °C |
| CCCCOC(=O)C=C(CC(=O)OCCCC)C(=O)OCCCC [Example 25, tributyl aconitate] | 28.2 °C |
| CCOC(=O)C=C(CC(=O)OCC)C(=O)OCC [Example 21, triethyl aconitate] | 28.2 °C |
| CCCCC(CC)COC(=O)C=C(CC(=O)OCC(CC)CCCC)C(=O)OCC(CC)CCCC (stereo not shown) [Example 20, tri(2-ethylhexyl) aconitate] | 42.5 °C |

Experiment: Acid value (KOH titration)
Format: physicochemical
Details: aconitate/citrate products, Table 4
Description: The aconitates and citrates prepared in the above examples and comparative examples were tested for acid value, purity, chromaticity, yield, triester conversion rate, and water content. […] The mixture was neutralized with 0.02 mol·L^-1 potassium hydroxide aqueous solution until a faint pink color appears, and the consumed volume Vo was recorded. 1 g of the sample (accurate to 0.01 g) was weighed using a ground-neck conical flask, then one portion of the above neutralized solution was added. After the sample was completely dissolved, the sample was titrated with 0.02 mol·L^-1 potassium hydroxide-ethanol standard titration solution (the titration should be completed within 30 seconds) until a faint pink color appeared and persisted for 5 seconds without fading, which was considered as an end point. The consumed volume V was recorded. […] Chromatographic column: C18 column; injector: 10 µL micro-syringe; solvent: acetonitrile (HPLC grade); acquisition time: 15 min; mobile phase: 80% acetonitrile (HPLC grade) and 20% deionized water; injection volume: 1 µL; wavelength: 230 nm.

| Compound | Acid value |
| --- | --- |
| CCCCOC(=O)C=C(CC(=O)OCCCC)C(=O)OCCCC [Example 29, tributyl aconitate] | 0.05 KOH/g |
| CCCCOC(=O)C=C(CC(=O)OCCCC)C(=O)OCCCC [Comparative Example 2, tributyl aconitate, reference compound] | 0.05 KOH/g |
| CCCCOC(=O)C=C(CC(=O)OCCCC)C(=O)OCCCC [Example 25, tributyl aconitate] | 0.05 KOH/g |
| CCOC(=O)C=C(CC(=O)OCC)C(=O)OCC [Example 21, triethyl aconitate] | 0.05 KOH/g |
| CCCCC(CC)COC(=O)C=C(CC(=O)OCC(CC)CCCC)C(=O)OCC(CC)CCCC (stereo not shown) [Example 20, tri(2-ethylhexyl) aconitate] | 0.05 KOH/g |

Experiment: Compatibility (water value method)
Format: physicochemical
Details: 2.5 g plasticizer and 25 g acetone titrated with deionized water until turbidity; Table 5
Description: as §1

| Compound | Compatibility |
| --- | --- |
| CCCCOC(=O)C=C(CC(=O)OCCCC)C(=O)OCCCC [Example 29, tributyl aconitate] | 14.9 mL |
| CCCCOC(=O)C=C(CC(=O)OCCCC)C(=O)OCCCC [Comparative Example 2, tributyl aconitate, reference compound] | 12.5 mL |
| CCCCOC(=O)C=C(CC(=O)OCCCC)C(=O)OCCCC [Example 25, tributyl aconitate] | 12.7 mL |
| CCOC(=O)C=C(CC(=O)OCC)C(=O)OCC [Example 21, triethyl aconitate] | 18.4 mL |
| CCCCC(CC)COC(=O)C=C(CC(=O)OCC(CC)CCCC)C(=O)OCC(CC)CCCC (stereo not shown) [Example 20, tri(2-ethylhexyl) aconitate] | 10.7 mL |

Experiment: Residual amounts of fat-soluble and water-soluble pigments (HPLC)
Format: physicochemical
Details: aconitate/citrate products, Table 4
Description: 7. Residual amounts of fat-soluble pigments and water-soluble pigments: • a high-performance liquid chromatograph (HPLC) was used, and the instrument sensitivity and stability of the detector should comply with the provisions of GB/T 16631-2008. Chromatographic column: C18 column; injector: 10 µL micro-syringe; solvent: acetonitrile (HPLC grade); acquisition time: 15 min; mobile phase: 80% acetonitrile (HPLC grade) and 20% deionized water; injection volume: 1 µL; wavelength: 230 nm.
Test: the instrument was adjusted according to the above provisions. After the baseline was stable, 0.2 µL of the sample was injected using a micro-syringe, and the integrator or chromatographic workstation was started at the same time. A pigment concentration-integral area standard curve was established by testing the integral areas of pigments with different concentrations. When the pigment content was measured, the corresponding pigment integral area was automatically given by the instrument, and the pigment concentration was obtained by comparing with the standard curve. The ratio of the pigment concentration to the sample concentration is the pigment content.

| Compound | Residual amounts of fat-soluble pigments | Residual amounts of water-soluble pigments |
| --- | --- | --- |
| CCCCOC(=O)C=C(CC(=O)OCCCC)C(=O)OCCCC [Example 29, tributyl aconitate] | 435 ppm | 1302 ppm |
| CCCCOC(=O)C=C(CC(=O)OCCCC)C(=O)OCCCC [Comparative Example 2, tributyl aconitate, reference compound] | 2406 ppm | 2248 ppm |
| CCCCOC(=O)C=C(CC(=O)OCCCC)C(=O)OCCCC [Example 25, tributyl aconitate] | 865 ppm | 454 ppm |
| CCOC(=O)C=C(CC(=O)OCC)C(=O)OCC [Example 21, triethyl aconitate] | 385 ppm | 328 ppm |
| CCCCC(CC)COC(=O)C=C(CC(=O)OCC(CC)CCCC)C(=O)OCC(CC)CCCC (stereo not shown) [Example 20, tri(2-ethylhexyl) aconitate] | 634 ppm | 610 ppm |

Experiment: Hardness (Shore hardness tester, GB/T 531-2008)
Format: physicochemical
Details: PVC plastic: 100 parts PVC resin, 35 parts plasticizer, 2 parts oxidized polyethylene wax, 5 parts octyltin maleate
Description: as §1, with “The PVC plastics include 100 parts of PVC resin, 35 parts of plasticizer, 2 parts of oxidized polyethylene wax, and 5 parts of octyltin maleate.” left out

| Compound | Hardness/Shore D |
| --- | --- |
| CCCCOC(=O)C=C(CC(=O)OCCCC)C(=O)OCCCC [Example 29, tributyl aconitate] | 42 Shore D |
| CCCCOC(=O)C=C(CC(=O)OCCCC)C(=O)OCCCC [Comparative Example 2, tributyl aconitate, reference compound] | 45 Shore D |
| CCCCOC(=O)C=C(CC(=O)OCCCC)C(=O)OCCCC [Example 25, tributyl aconitate] | 45 Shore D |
| CCOC(=O)C=C(CC(=O)OCC)C(=O)OCC [Example 21, triethyl aconitate] | 43 Shore D |
| CCCCC(CC)COC(=O)C=C(CC(=O)OCC(CC)CCCC)C(=O)OCC(CC)CCCC (stereo not shown) [Example 20, tri(2-ethylhexyl) aconitate] | 54 Shore D |

Experiment: Water content (Karl Fischer moisture meter)
Format: physicochemical
Details: aconitate/citrate products, Table 4
Source text: 6. Water content: a Karl Fischer moisture meter is used to test the water content (retained to two decimal places).

| Compound | Water content |
| --- | --- |
| CCCCOC(=O)C=C(CC(=O)OCCCC)C(=O)OCCCC [Example 29, tributyl aconitate] | 0.03% |
| CCCCOC(=O)C=C(CC(=O)OCCCC)C(=O)OCCCC [Comparative Example 2, tributyl aconitate, reference compound] | 0.05% |
| CCCCOC(=O)C=C(CC(=O)OCCCC)C(=O)OCCCC [Example 25, tributyl aconitate] | 0.03% |
| CCOC(=O)C=C(CC(=O)OCC)C(=O)OCC [Example 21, triethyl aconitate] | 0.02% |
| CCCCC(CC)COC(=O)C=C(CC(=O)OCC(CC)CCCC)C(=O)OCC(CC)CCCC (stereo not shown) [Example 20, tri(2-ethylhexyl) aconitate] | 0.05% |

Experiment: Chromaticity (platinum-cobalt colorimetry)
Format: physicochemical
Details: aconitate/citrate products, Table 4; colour comparison at 25°C
Description: 3. Chromaticity: preparation of 500# platinum-cobalt colorimetric standard stock solution: 1.2450 g of potassium chloroplatinate and 1.0000 g of cobalt chloride were weighed, with an accuracy of 0.0002 g, the mixture was dissolved in 100 mL of hydrochloric acid, and then diluted to 1000 mL with distilled water. This solution is just the 500# colorimetric standard comparison solution.
Preparation of colorimetric standards below 500#: different amounts of the 500# stock solution was prepared, and diluted with distilled water to the volume of a colorimetric tube to prepare colorimetric standard solutions of any number. The calculation formula is as follows: V = (N×V1)/500 [formula]
In the formula, V is the volume of the 500# standard stock solution taken to prepare the N# colorimetric standard solution, in mL; V1 is the volume of the colorimetric tube used, in mL; and N is the number of the colorimetric standard solution to be prepared.
Color comparison determination was performed at 25°C.

| Compound | Chromaticity |
| --- | --- |
| CCCCOC(=O)C=C(CC(=O)OCCCC)C(=O)OCCCC [Example 29, tributyl aconitate] | 60 Pt-Co |
| CCCCOC(=O)C=C(CC(=O)OCCCC)C(=O)OCCCC [Comparative Example 2, tributyl aconitate, reference compound] | 120 Pt-Co |
| CCCCOC(=O)C=C(CC(=O)OCCCC)C(=O)OCCCC [Example 25, tributyl aconitate] | 50 Pt-Co |
| CCOC(=O)C=C(CC(=O)OCC)C(=O)OCC [Example 21, triethyl aconitate] | 30 Pt-Co |
| CCCCC(CC)COC(=O)C=C(CC(=O)OCC(CC)CCCC)C(=O)OCC(CC)CCCC (stereo not shown) [Example 20, tri(2-ethylhexyl) aconitate] | 30 Pt-Co |
